Test results published in patent publication US11492325B2, “Compounds as inhibitors of sodium channels” (Human BioMolecular Research Institute, priority 2016, dated 2022).
Read-outs that look alike come from different tables or passages of the source. One block for each molecule: values may come before it.

Columns and labels:
CYP3A4 [1] = target: T1, CYP3A4 (Homo sapiens, UniProt P08684); details: 50 min
CYP2D6 = CYP2D6 (Homo sapiens, UniProt P10635); experiment: Metabolism with highly purified CYP2D6 (HPLC)
CYP2D6, sequence (P10635 whole entry): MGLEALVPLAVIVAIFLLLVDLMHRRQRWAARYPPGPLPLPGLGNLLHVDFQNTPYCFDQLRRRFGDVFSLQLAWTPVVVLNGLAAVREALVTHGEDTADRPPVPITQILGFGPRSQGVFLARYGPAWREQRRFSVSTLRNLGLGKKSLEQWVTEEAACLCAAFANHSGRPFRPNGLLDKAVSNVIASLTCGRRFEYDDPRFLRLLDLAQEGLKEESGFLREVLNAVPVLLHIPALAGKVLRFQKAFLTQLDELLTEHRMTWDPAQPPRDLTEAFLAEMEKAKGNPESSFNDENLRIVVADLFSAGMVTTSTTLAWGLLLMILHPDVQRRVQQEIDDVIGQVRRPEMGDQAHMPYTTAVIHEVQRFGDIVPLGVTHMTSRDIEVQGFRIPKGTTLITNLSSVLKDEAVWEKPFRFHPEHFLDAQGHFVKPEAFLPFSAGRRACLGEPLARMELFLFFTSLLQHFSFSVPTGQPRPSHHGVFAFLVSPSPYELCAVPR
Method: (§1) A typical incubation contained rat, mouse, dog or human liver microsomes (0.4-0.5 mg of protein), 100 mM potassium phosphate buffer (pH7.4), 50 μM test compound, an NADPH-generating system consisting of 0.5 mM NADP^+, 0.5 mM glucose-6-phosphate, 1 IU/mL glucose-6-phosphate dehydrogenase, 1 mg/mL diethylenetriaminepentaaceticacid (DETAPAC), and 3 mM MgCl2 in a final incubation volume of 0.25 mL. […] After centrifugation at 3000 rpm for 5 min, the organic fraction was collected, the solvent was removed with a stream of argon and the residue was reconstituted in 125 μL of MeOH and 125 μL H2O, mixed thoroughly, centrifuged at 13,000 rpm for 5 min and analyzed by high performance liquid chromatography. Samples were run on a Hitachi D-7000 HPLC system using a L-7100 analytical pump, L-7400 UV-Visible variable wavelength detector, and L-7600 automatic sample injector. […] Disappearance of the analyte was monitored over time. A plot of the area under the curve for the normalized analyte versus time afforded the half-life values and kapp.
(§2) Accordingly, we examined the metabolism of leads with highly purified CYPs with an HPLC method (Example 8).

CYP3A5 = CYP3A5 (Homo sapiens, UniProt P20815); experiment: Metabolism with highly purified CYP3A5 (HPLC)
CYP3A5, sequence (P20815 whole entry): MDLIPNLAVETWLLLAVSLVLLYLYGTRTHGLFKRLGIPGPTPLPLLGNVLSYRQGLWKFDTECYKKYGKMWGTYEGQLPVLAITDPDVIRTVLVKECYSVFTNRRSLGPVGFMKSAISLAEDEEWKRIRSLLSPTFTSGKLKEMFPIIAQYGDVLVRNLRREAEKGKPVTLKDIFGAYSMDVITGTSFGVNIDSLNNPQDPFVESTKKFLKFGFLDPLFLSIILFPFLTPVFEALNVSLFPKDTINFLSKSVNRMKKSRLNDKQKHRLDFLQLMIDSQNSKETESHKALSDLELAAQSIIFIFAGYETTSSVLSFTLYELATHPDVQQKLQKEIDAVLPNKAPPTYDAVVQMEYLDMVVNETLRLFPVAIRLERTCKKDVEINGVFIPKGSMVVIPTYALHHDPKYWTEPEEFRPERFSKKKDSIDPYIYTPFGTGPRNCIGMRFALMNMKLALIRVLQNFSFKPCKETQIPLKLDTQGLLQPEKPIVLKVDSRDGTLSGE
Method: as §1, §2

FMO = experiment: Metabolism by FMO
[2] = Metabolism in human hepatic S9
Human FMO1 = target: T2, Human FMO1 (Homo sapiens, UniProt Q01740); experiment: Metabolism with human FMO1 (nmol metabolism/incubation); details: 15 μg enzyme/incubation; 30 mins, 37° C.; nmol metabolism/incubation
T2 sequence (Q01740 1-532): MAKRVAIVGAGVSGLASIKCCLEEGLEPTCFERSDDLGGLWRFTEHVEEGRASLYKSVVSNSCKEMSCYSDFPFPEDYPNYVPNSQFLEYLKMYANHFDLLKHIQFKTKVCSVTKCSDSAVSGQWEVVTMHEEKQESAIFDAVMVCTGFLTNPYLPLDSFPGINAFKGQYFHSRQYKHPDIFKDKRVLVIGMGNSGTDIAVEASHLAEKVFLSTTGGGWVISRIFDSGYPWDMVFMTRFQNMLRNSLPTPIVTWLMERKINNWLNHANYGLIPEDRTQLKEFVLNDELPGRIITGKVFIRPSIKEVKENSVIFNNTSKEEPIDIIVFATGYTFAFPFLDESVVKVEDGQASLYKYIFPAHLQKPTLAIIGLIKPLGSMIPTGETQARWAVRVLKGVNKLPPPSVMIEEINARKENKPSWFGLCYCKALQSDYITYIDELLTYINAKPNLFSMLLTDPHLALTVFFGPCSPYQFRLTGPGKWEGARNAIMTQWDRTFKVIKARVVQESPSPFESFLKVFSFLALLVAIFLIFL

[3] = Metabolic stability in human liver microsomes; format: in vitro ADME
Outline: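 Liver microsomes (rat, mouse, dog or human; 0.4-0.5 mg protein) incubated with 50 μM compound in 100 mM potassium phosphate pH 7.4 with NADPH-generating system and 3 mM MgCl2. Parent loss followed by HPLC-UV; half-life and kapp from normalized peak area versus time.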

CYP3A4 [4] = target: T1, CYP3A4; experiment: Metabolism with highly purified CYP3A4 (HPLC)
[5] = Metabolism in mouse hepatic S9; details: 0.4 mg protein/incubation; 30 mins, 37° C.; nmol metabolism/incubation
Method: as §1
Microsomes contain CYPs and FMO metabolic enzymes. S9 contains soluble enzymes (i.e., aldehyde oxidase, MAO, etc.).

[6] = system: isolated perfused aged rat heart exposed to hydrogen peroxide; experiment: Aged rat heart perfusion model of arrhythmia (H2O2, ex vivo); details: 10 μM, 30 min after perfusion, continuous H2O2 (0.1 mM)
Method: FIG. 1. Initiation of Early After Depolarizations-Mediated Ectopic Ventricular Beats and Ventricular Fibrillation in an Isolated Perfused Aged Rat Heart Exposed to hydrogen peroxide.
Conduction velocity (CV), action potential duration (APD) and responsiveness to drugs was measured in ex-vivo rat heart preparations (FIG. 1). We chose a rat heart model to test for the effect of (R)-82 (i.e., (R)-Dd, Example 4) to decrease arrhythmias because CV and APD are preserved in buffer-perfused rat hearts up to […]. In contrast, in this model, continuous presence (perfusion) of H2O2 (0.1 mM) produces early after depolarizations (EADs) and ectopic ventricular beats 6 min after exposure that degenerates to ventricular tachycardia (VT) and ventricular fibrillation (VF) after 12 min (FIG. 1). Left untreated, the heart would die within 45 mins. […] The conclusion is that (R)-82 is more efficacious than the currently used standard of care.

Male BALBc mice = details: mice, 100 mg/kg
Text: Male BALBc mice (20-22 g) were used throughout these studies. The animals were maintained in a temperature-controlled room with 12-hr periods of light and darkness and had continuous access to water and animal food. […] Groups contained 2-4 animals.

T1 sequence (P08684 whole entry): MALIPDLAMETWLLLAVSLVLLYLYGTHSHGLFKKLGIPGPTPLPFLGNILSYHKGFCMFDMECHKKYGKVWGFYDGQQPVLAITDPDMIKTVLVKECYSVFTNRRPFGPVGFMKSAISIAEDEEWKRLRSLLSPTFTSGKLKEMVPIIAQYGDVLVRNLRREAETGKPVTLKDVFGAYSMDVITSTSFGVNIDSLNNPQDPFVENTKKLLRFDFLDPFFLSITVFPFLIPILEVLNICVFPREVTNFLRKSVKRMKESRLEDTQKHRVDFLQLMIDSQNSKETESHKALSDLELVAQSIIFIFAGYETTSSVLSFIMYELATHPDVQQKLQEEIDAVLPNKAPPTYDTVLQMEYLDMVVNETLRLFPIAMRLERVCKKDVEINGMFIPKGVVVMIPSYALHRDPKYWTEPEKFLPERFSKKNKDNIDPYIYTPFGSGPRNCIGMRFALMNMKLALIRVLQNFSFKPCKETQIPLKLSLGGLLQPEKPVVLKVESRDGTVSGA

Compound: Cl.NC(COc1ccccc1C(F)(F)F)c1ccccc1 (racemic) [Compound 82, 1-phenyl-2-(2-(trifluoromethyl)phenoxy)ethan-1-amine]
nmols metabolized, CYP3A4 (CYP3A4 [1]): 10.9 nmols
nmols/μg CYP, CYP3A4 (CYP3A4 [1]): 0.77 nmols/μg CYP
pmols product/μg CYP/min, CYP3A4 (CYP3A4 [1]): 15.4 pmols product/μg CYP/min
nmols metabolized, CYP2D6 (CYP2D6; human, 50 min): 29.1 nmols
nmols/μg CYP, CYP2D6 (CYP2D6; human, 50 min): 2.18 nmols/μg CYP
pmols product/μg CYP/min, CYP2D6 (CYP2D6; human, 50 min): 43.6 pmols product/μg CYP/min
nmols metabolized, CYP3A5 (CYP3A5; human, 50 min): 29.9 nmols
nmols/μg CYP, CYP3A5 (CYP3A5; human, 50 min): 2.13 nmols/μg CYP
pmols product/μg CYP/min, CYP3A5 (CYP3A5; human, 50 min): 42.6 pmols product/μg CYP/min

metabolism by FMO (FMO): metabolized by FMO
metabolism in human liver S-9 judged by HPLC [2]: not metabolized very extensively
Human FMO1 (nmol/incub) (Human FMO1): 6.7 nmol/incub
metabolism in human liver microsomes judged by HPLC [3]: not metabolized very extensively
Human CYP3A4 (nmol/incub) (CYP3A4 [4]; 3 pmol enzyme/incubation, 30 mins, 37° C., nmol metabolism/incubation): 3.0 nmol/incub
nmols metabolized, CYP3A4 (CYP3A4 [4]; 50 min incubation): 32.4 nmols
pmols product/μg CYP/min, CYP3A4 (CYP3A4 [4]; 50 min incubation): 46.2 pmols product/μg CYP/min
nmols metabolized, CYP2D6 (CYP2D6; 50 min incubation): 4.04 nmols
pmols product/μg CYP/min, CYP2D6 (CYP2D6; 50 min incubation): 6.0 pmols product/μg CYP/min
nmols metabolized, CYP3A5 (CYP3A5; 50 min incubation): 34.2 nmols
pmols product/μg CYP/min, CYP3A5 (CYP3A5; 50 min incubation): 48.8 pmols product/μg CYP/min
Mouse liver S-9 (nmol/incub) [5]: 5.2 nmol/incub
Compound: Cc1cccc(C)c1OCC(C)N (racemic) [Mexiletine, reference compound]

Compound: Cl.NC(COc1ccccc1C(F)(F)F)c1ccccc1 (stereo in doubt) [(R)-82]
Liver S-9, remaining after 1 hr ([2]; human, s9, 1 h): >95% after 1 hr
resolution of arrhythmias [6]: complete resolution of all forms of arrhythmias to normal sinus rhythm
Liver Microsomes T1/2 ([3]; human, microsomes): 2.27 h
Behavior Effect (R)-enantiomer (Male BALBc mice): No detectable effect
behavioral effects at 100 mg/kg (Male BALBc mice; enantiomers): no apparent behavioral effects
